Measurements: the NIST ThermoML archive (doi:10.1021/je060271a)

Conditions: 343.15 K, Liquid, Vibrating tube method

CCCCC(=O)OCC(COC(=O)CCCC)(COC(=O)CCCC)COC(=O)CCCC [pentaerythritol tetrapentanoate]
Conditions	mass density [kg/m3]
12882 kPa	988.2
12909 kPa	988.3
12937 kPa	988.2
12964 kPa	988.3
12996 kPa	988.3
13022 kPa	988.5
13049 kPa	988.3
13082 kPa	988.4
13109 kPa	988.3
13137 kPa	988.5
13164 kPa	988.4
13198 kPa	988.5
13226 kPa	988.4
13254 kPa	988.4
13287 kPa	988.5
13318 kPa	988.6
13346 kPa	988.6
13374 kPa	988.6
13408 kPa	988.7
13437 kPa	988.6
13466 kPa	988.7
13495 kPa	988.7
13530 kPa	988.7
13559 kPa	988.7
13594 kPa	988.8
13624 kPa	988.8
13653 kPa	988.9
13683 kPa	988.8
13719 kPa	988.9
13750 kPa	989
13780 kPa	989
13816 kPa	989
13847 kPa	989
13877 kPa	989.1
13914 kPa	988.9
13945 kPa	989.2
13976 kPa	989
14014 kPa	989.2
14045 kPa	989.2
14077 kPa	989.2
14110 kPa	989.1
14149 kPa	989.1
14181 kPa	989.1
14213 kPa	989.3
14252 kPa	989.2
14284 kPa	989.4
14318 kPa	989.2
14350 kPa	989.3
14390 kPa	989.6
14423 kPa	989.4
14457 kPa	989.4
14497 kPa	989.5
14531 kPa	989.5
14566 kPa	989.5
14607 kPa	989.5
14641 kPa	989.7
14676 kPa	989.6
14717 kPa	989.7
14752 kPa	989.7
14787 kPa	989.7
14829 kPa	989.7
14864 kPa	989.6
14900 kPa	989.8
14943 kPa	989.7
14979 kPa	989.8
15016 kPa	989.9
15053 kPa	989.8
15097 kPa	989.9
15134 kPa	989.8
15171 kPa	989.9
15214 kPa	989.9
15252 kPa	990.1
15289 kPa	989.9
15334 kPa	990
15372 kPa	990
15411 kPa	990.2
15458 kPa	990.1
15497 kPa	990.1
15537 kPa	990.3
15578 kPa	990.2
15628 kPa	990.3
15668 kPa	990.3
15704 kPa	990.5
15742 kPa	990.3
15774 kPa	990.4
15806 kPa	990.4
15845 kPa	990.4
15877 kPa	990.6
15910 kPa	990.4
15950 kPa	990.4
15982 kPa	990.5
16016 kPa	990.5
16052 kPa	990.6
16091 kPa	990.6
16125 kPa	990.7
16159 kPa	990.6
16199 kPa	990.8
16233 kPa	990.7
16268 kPa	990.8
16302 kPa	990.8
16344 kPa	990.7
16378 kPa	990.9
16413 kPa	990.8
16456 kPa	990.9
16493 kPa	991
16530 kPa	991
16566 kPa	991
16602 kPa	991
16644 kPa	990.9
16680 kPa	991
16724 kPa	991.1
16760 kPa	991.1
16796 kPa	991.1
16841 kPa	991.2
16878 kPa	991.1
16915 kPa	991.1
16959 kPa	991.1
16997 kPa	991.2
17035 kPa	991.2
17081 kPa	991.3
17119 kPa	991.3
17158 kPa	991.3
17204 kPa	991.4
17243 kPa	991.4
17282 kPa	991.4
17330 kPa	991.6
17371 kPa	991.5
17412 kPa	991.6
17462 kPa	991.6
17500 kPa	991.5
17533 kPa	991.6
17569 kPa	991.6
17600 kPa	991.6
17630 kPa	991.5
17666 kPa	991.6
17697 kPa	991.7
17728 kPa	991.8
17765 kPa	991.9
17796 kPa	991.9
17827 kPa	991.7
17864 kPa	991.9
17896 kPa	991.9
17928 kPa	991.9
17966 kPa	991.9
17998 kPa	991.8
18030 kPa	992
18068 kPa	992
18100 kPa	992.1
18132 kPa	992
18171 kPa	991.9
18204 kPa	992.2
18236 kPa	992
18276 kPa	992.1
18309 kPa	992.1
18342 kPa	992.1
18382 kPa	992.2
18416 kPa	992.2
18450 kPa	992.1
18490 kPa	992.3
18524 kPa	992.4
18558 kPa	992.3
18600 kPa	992.4
18634 kPa	992.4
18668 kPa	992.5
18709 kPa	992.5
18744 kPa	992.5
18780 kPa	992.5
18821 kPa	992.4
18857 kPa	992.7
18892 kPa	992.5
18935 kPa	992.7
18971 kPa	992.6
19007 kPa	992.6
19052 kPa	992.7
19088 kPa	992.6
19126 kPa	992.7
19172 kPa	992.8
19211 kPa	992.9
19248 kPa	992.8
19284 kPa	992.9
19312 kPa	992.8
19340 kPa	992.9
19368 kPa	992.9
19401 kPa	992.9
19429 kPa	992.9
19458 kPa	993
19491 kPa	992.9
19520 kPa	993.1
19549 kPa	993.1
19579 kPa	993
19613 kPa	993
19638 kPa	993.1
19666 kPa	993.2
19689 kPa	993.1
19713 kPa	993
19737 kPa	993.1
19761 kPa	993.2
19789 kPa	993.2
19813 kPa	993.2
19836 kPa	993.2
19864 kPa	993.2
19888 kPa	993.3
19912 kPa	993.3
19941 kPa	993.3
19964 kPa	993.3
19988 kPa	993.4
20017 kPa	993.3
20042 kPa	993.4
20066 kPa	993.3
20095 kPa	993.4
20119 kPa	993.6
20143 kPa	993.5
20173 kPa	993.5
20197 kPa	993.5
20222 kPa	993.5
20251 kPa	993.5
20276 kPa	993.5
20301 kPa	993.6
20330 kPa	993.7
20355 kPa	993.4
20381 kPa	993.7
20410 kPa	993.7
20436 kPa	993.7
20461 kPa	993.5
20487 kPa	993.7
20517 kPa	993.6
20542 kPa	993.6
20568 kPa	993.7
20598 kPa	993.7
20629 kPa	993.8
20660 kPa	993.8
20687 kPa	993.8
20713 kPa	993.9
20740 kPa	993.9
20770 kPa	993.8
20797 kPa	993.9
20823 kPa	993.8
20854 kPa	993.9
20880 kPa	994
20907 kPa	993.9
20939 kPa	994
20965 kPa	994
20992 kPa	994.1
21020 kPa	993.9
21052 kPa	994.1
21079 kPa	994.1
21106 kPa	994.1
21254 kPa	994.2
21281 kPa	994.3
21309 kPa	994.2
21342 kPa	994.3
21370 kPa	994.3
22531 kPa	995.1
22626 kPa	995.2
22664 kPa	995
22696 kPa	995.3
23251 kPa	995.5
23324 kPa	995.7
23466 kPa	995.7
23985 kPa	996.2
24021 kPa	996
24064 kPa	996
24136 kPa	996.2
24180 kPa	996.1
24216 kPa	996.2
24253 kPa	996.2
24297 kPa	996.3
24334 kPa	996.4
24371 kPa	996.3
24415 kPa	996.2
24452 kPa	996.3
24490 kPa	996.5
24529 kPa	996.4
24574 kPa	996.5
24612 kPa	996.4
24650 kPa	996.5
24696 kPa	996.4
24734 kPa	996.4
24772 kPa	996.5
24856 kPa	996.5
24895 kPa	996.7
24934 kPa	996.7
24981 kPa	996.8
25274 kPa	996.9
25314 kPa	997
25354 kPa	996.9
25839 kPa	997.2
25895 kPa	997.4
26210 kPa	997.4
26261 kPa	997.5
26310 kPa	997.5
26350 kPa	997.5
26385 kPa	997.6
26426 kPa	997.6
26460 kPa	997.6
26502 kPa	997.8
26536 kPa	997.7
26571 kPa	997.8
26607 kPa	997.7
26649 kPa	997.7
26684 kPa	997.9
26720 kPa	997.9
26756 kPa	997.9
26800 kPa	997.9
26835 kPa	998
26871 kPa	998
26914 kPa	998
26950 kPa	998
26986 kPa	998
27029 kPa	998.1
27065 kPa	998.2
27101 kPa	998
27145 kPa	998.2
27182 kPa	998.1
27219 kPa	998.2
27256 kPa	998.2
27301 kPa	998.2
27339 kPa	998.2
27376 kPa	998.2
27421 kPa	998.2
27458 kPa	998.2
